Data published in patent publication US9624239B2, “Protein kinase inhibitors” (Pharmascience Inc., priority 2011, dated 2017).

Experiments:
[1] = target: T1, histidine tagged recombinant Human Lymphocyte-Specific Protein Tyrosine Kinase (Lck) (Homo sapiens, UniProt P06239); assay: Lck kinase inhibition assay (fluorescence polarization, KinEASE FP Fluorescein Green); format: biochemical; conditions: 10 μM ATP, 250 μM substrate, 60 minutes, room temperature; Ki from IC50 by Cheng-Prusoff
T1 construct: histidine tag
Protocol: (§1) Kinase Binding Btk and Lck Kinase Inhibition Assay
(§2) Fluorescence polarization-based kinase assays were performed in 384 well-plate format using histidine tagged recombinant human full-length Bruton Agammaglobulinemia Tyrosine Kinase (Btk) or histidine tagged recombinant Human Lymphocyte-Specific Protein Tyrosine Kinase (Lck) and a modified protocol of the KinEASE™ FP Fluorescein Green Assay supplied from Millipore. Kinase reaction were performed at room temperature for 60 minutes in presence of 250 μM substrate, 10 μM ATP and variable test article concentrations. The reaction was stopped with EDTA/kinease detection reagents and the polarization measured on a Tecan 500 instrument. From the dose-response curve obtained, the IC50 was calculated using Graph Pad Prisms® using a non-linear fit curve. The Km for ATP on each enzyme was experimentally determined and the Ki values calculated using the Cheng-Prusoff equation (see: Cheng Y, Prusoff W H. (1973) Relationship between the inhibition constant (K1) and the concentration of inhibitor which causes 50 percent inhibition (I50) of an enzymatic reaction”. Biochem Pharmacol 22 (23): 3099-108).
(§3) ki values are reported in Tables 2 and 3: • a—Less than 100 nM; b—less than 1000 nM; c—more than 1000 nM

[2] = tested on: mouse splenocytes; assay: Splenic cell proliferation assay (anti-IgM stimulated B cell proliferation, Cell Titer-Glo); format: cell-based; conditions: Splenocyte; CD1 mouse splenocytes, 1 h pre-treatment, 2.5 ug/ml anti-IgM F(ab')2 for 72 h; read-out: EC50 (nM), Inhibition of splenic cell proliferation
Protocol: Splenic Cell Proliferation Assay
Splenocytes were obtained from 6 week old male CD1 mice (Charles River Laboratories Inc.). Mouse spleens were manually disrupted in PBS and filtered using a 70 μm cell strainer followed by ammonium chloride red blood cell lysis. Cells were washed, resuspended in Splenocyte Medium (HyClone RPMI supplemented with 10% heat-inactivated FBS, 0.5× non-essential amino acids, 10 mM HEPES, 50 uM beta mercaptoethanol) and incubated at 37° C., 5% CO2 for 2 h to remove adherent cells. Suspension cells were seeded in 96 well plates at 50,000 cells per well and incubated at 37° C., 5% CO2 for 1 h. Splenocytes were pre-treated in triplicate with 10,000 nM curves of Formula 1 compounds for 1 h, followed by stimulation of B cell proliferation with 2.5 ug/ml anti-IgM F(ab′)2 (Jackson ImmunoResearch) for 72 h. Cell proliferation was measured by Cell Titer-Glo Luminescent Assay (Promega). EC50 values (50% proliferation in the presence of compound as compared to vehicle treated controls) were calculated from dose response compound curves using GraphPad Prism Software.
EC50 values are reported in Table 4: • a—Less than 100 nM; b—less than 1000 nM; c—more than 1000 nM

[3] = target: T2, histidine tagged recombinant human full-length Bruton Agammaglobulinemia Tyrosine Kinase (Btk) (Homo sapiens, UniProt Q06187); assay: Btk kinase inhibition assay (fluorescence polarization, KinEASE FP Fluorescein Green); format: biochemical; conditions: 10 μM ATP, 250 μM substrate, 60 minutes, room temperature; Ki from IC50 by Cheng-Prusoff; read-out: ki50 (nM), Inhibition of Btk
T2 construct: recombinant human full-length Bruton Agammaglobulinemia Tyrosine Kinase (Btk); histidine tag
Protocol: as §1, §2, §3

T1 sequence (P06239 whole entry): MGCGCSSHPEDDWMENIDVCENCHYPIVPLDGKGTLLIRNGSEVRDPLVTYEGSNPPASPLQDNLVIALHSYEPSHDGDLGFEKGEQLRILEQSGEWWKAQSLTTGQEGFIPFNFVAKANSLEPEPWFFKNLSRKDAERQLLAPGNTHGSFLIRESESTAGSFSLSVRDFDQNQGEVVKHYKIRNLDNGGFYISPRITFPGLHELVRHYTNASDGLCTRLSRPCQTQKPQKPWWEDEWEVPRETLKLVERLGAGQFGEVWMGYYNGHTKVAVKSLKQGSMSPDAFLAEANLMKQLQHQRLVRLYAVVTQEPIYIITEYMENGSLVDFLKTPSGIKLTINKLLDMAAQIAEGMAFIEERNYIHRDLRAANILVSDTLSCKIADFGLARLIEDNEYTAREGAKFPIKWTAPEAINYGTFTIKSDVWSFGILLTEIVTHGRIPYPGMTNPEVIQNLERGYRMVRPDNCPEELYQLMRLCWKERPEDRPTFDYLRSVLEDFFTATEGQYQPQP
T2 sequence (Q06187 whole entry): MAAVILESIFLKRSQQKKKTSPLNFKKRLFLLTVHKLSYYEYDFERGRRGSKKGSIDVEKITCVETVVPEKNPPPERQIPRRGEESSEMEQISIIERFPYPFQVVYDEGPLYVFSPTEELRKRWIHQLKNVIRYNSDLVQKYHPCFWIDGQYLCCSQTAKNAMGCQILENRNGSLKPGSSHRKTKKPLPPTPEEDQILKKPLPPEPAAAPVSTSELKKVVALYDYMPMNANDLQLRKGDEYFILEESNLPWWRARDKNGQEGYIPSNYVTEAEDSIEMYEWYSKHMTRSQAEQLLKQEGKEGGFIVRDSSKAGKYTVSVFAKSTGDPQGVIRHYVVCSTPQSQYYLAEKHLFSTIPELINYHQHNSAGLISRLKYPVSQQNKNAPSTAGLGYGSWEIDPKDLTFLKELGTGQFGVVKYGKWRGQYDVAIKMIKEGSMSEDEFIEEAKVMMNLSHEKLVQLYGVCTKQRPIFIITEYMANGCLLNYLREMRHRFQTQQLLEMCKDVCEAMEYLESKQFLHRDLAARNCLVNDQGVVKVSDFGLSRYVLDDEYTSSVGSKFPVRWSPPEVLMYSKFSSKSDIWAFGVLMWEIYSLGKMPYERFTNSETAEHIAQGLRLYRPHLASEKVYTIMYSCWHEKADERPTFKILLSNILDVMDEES

SMILES	Ki [1]	EC50 [2]	Ki [3]
CC1OCc2c1c1ncnc(N)c1n2-c1ccc(Oc2ccccc2)c(Cl)c1 (centres unmarked) [Compound 39]	< 100 nM	> 1000 nM	< 1000 nM
CC1OCc2c1c1ncnc(N)c1n2-c1ccc(Oc2cccc(OCCOc3ccc(Cl)cc3)c2)cc1 (centres unmarked) [Compound 50]	< 100 nM	> 1000 nM	< 100 nM
CC1OCc2c1c1ncnc(N)c1n2-c1ccc(Oc2ccccc2)c(F)c1 (centres unmarked) [Compound 40]	< 100 nM	100 to 1000 nM	< 1000 nM
CC1OCc2c1c1ncnc(N)c1n2-c1ccc(Oc2cccc(OCC#N)c2)cc1 (centres unmarked) [Compound 46]	< 100 nM	100 to 1000 nM	< 100 nM
CC1OCc2c1c1ncnc(N)c1n2-c1ccc(Oc2cccc(C#N)c2)cc1 (centres unmarked) [Compound 37]	> 1000 nM	> 1000 nM	> 1000 nM
Nc1ncnc2c3c(n(-c4ccc(Cc5ccccc5)cc4)c12)CCC3 [Compound 22]	< 100 nM	–	> 1000 nM
Nc1ncnc2c3c(n(-c4ccc(Oc5ccccc5)cc4)c12)CN(C(=O)c1ccccc1)C3 [Compound 18]	< 1000 nM	–	> 1000 nM
Nc1ncnc2c3c(n(-c4ccc(Oc5ccccc5)cc4)c12)CN(S(=O)(=O)c1ccccc1)C3 [Compound 9]	< 1000 nM	–	> 1000 nM
Nc1ncnc2c3c(n(-c4ccc(Oc5ccccc5)cc4)c12)CCNC3 [Compound 8]	< 1000 nM	–	> 1000 nM
COc1cccc(COc2cccc(Oc3ccc(-n4c5c(c6ncnc(N)c64)C(C)OC5)cc3)c2)c1 (centres unmarked) [Compound 103]	–	100 to 1000 nM	< 100 nM
CC1OCc2c1c1ncnc(N)c1n2-c1ccc(Oc2cccc(OCc3cccc(Cl)c3)c2)cc1 (centres unmarked) [Compound 97]	–	100 to 1000 nM	< 100 nM
CC(=O)Nc1ccccc1OCc1cccc(Oc2ccc(-n3c4c(c5ncnc(N)c53)C(C)OC4)cc2)c1 (centres unmarked) [Compound 141]	–	100 to 1000 nM	< 1000 nM
CC1OCc2c1c1ncnc(N)c1n2-c1ccc(Oc2cccc(OCC(N)=O)c2)cc1 (centres unmarked) [Compound 83]	–	> 1000 nM	> 1000 nM
N#Cc1ccccc1COc1cccc(Oc2ccc(-n3c4c(c5ncnc(N)c53)CCC4)cc2)c1 [Compound 122]	–	100 to 1000 nM	< 100 nM
CC1OCc2c1c1ncnc(N)c1n2-c1ccc(Oc2cccc(NC(=O)c3cccc(F)c3)c2)cc1 (centres unmarked) [Compound 121]	–	100 to 1000 nM	< 100 nM
COc1ccc(C(=O)Nc2cccc(Oc3ccc(-n4c5c(c6ncnc(N)c64)C(C)OC5)cc3)c2)cc1 (centres unmarked) [Compound 110]	–	> 1000 nM	< 1000 nM
CC1OCc2c1c1ncnc(N)c1n2-c1ccc(Oc2cccc(OCc3ccccc3C(F)(F)F)c2)cc1 (centres unmarked) [Compound 100]	–	< 100 nM	< 100 nM
CCCCOc1cccc(Oc2ccc(-n3c4c(c5ncnc(N)c53)C(C)OC4)cc2)c1 (centres unmarked) [Compound 136]	–	100 to 1000 nM	< 100 nM
CC1OCc2c1c1ncnc(N)c1n2-c1ccc(Oc2cccc(COc3ccccc3C#N)c2)cc1 (centres unmarked) [Compound 134]	–	< 100 nM	< 100 nM
COc1cccc(C(=O)Nc2cccc(Oc3ccc(-n4c5c(c6ncnc(N)c64)C(C)OC5)cc3)c2)c1 (centres unmarked) [Compound 118]	–	100 to 1000 nM	< 100 nM
CCN1CCc2c(c3ncnc(N)c3n2-c2ccc(Oc3ccccc3)cc2)C1 [Compound 15]	< 100 nM	–	> 1000 nM
CC1OCc2c1c1ncnc(N)c1n2-c1ccc(Oc2cccc(OCc3ccc(C#N)cc3)c2)cc1 (centres unmarked) [Compound 64]	–	> 1000 nM	< 1000 nM
Nc1ncnc2c3c(n(-c4ccc(Oc5cccc(OCc6ccccc6)c5)cc4)c12)CCC3 [Compound 68]	–	100 to 1000 nM	< 100 nM
CC1OCc2c1c1ncnc(N)c1n2-c1ccc(Oc2cccc(CCOc3ccccc3)c2)cc1 (centres unmarked) [Compound 115]	–	100 to 1000 nM	< 100 nM
CC1OCc2c1c1ncnc(N)c1n2-c1ccc(Oc2cccc(COc3ccccc3)c2)cc1 (centres unmarked) [Compound 85]	–	100 to 1000 nM	< 100 nM
COCC(=O)Nc1cccc(COc2cccc(Oc3ccc(-n4c5c(c6ncnc(N)c64)C(C)OC5)cc3)c2)c1 (centres unmarked) [Compound 132]	–	100 to 1000 nM	< 100 nM

SMILES	Ki [1]	EC50 [2]	Ki [3]
CC1OCc2c1c1ncnc(N)c1n2-c1ccc(Oc2cccc(OCc3ccccn3)c2)cc1 (centres unmarked) [Compound 75]	–	> 1000 nM	< 100 nM
Nc1ncnc2c3c(n(-c4ccc(Oc5cccc(OCc6cccnc6)c5)cc4)c12)CCC3 [Compound 62]	–	100 to 1000 nM	< 100 nM
CC1OCc2c1c1ncnc(N)c1n2-c1ccc(Oc2cccc(NC(=O)c3ccc(Cl)cc3)c2)cc1 (centres unmarked) [Compound 120]	–	100 to 1000 nM	< 100 nM
CC1OCc2c1c1ncnc(N)c1n2-c1ccc(Oc2cccc(OCc3cccc(N)c3)c2)cc1 (centres unmarked) [Compound 116]	–	100 to 1000 nM	< 100 nM
Nc1ncnc2c3c(n(-c4ccc(Oc5ccccc5)cc4)c12)CSC3 [Compound 63]	–	> 1000 nM	> 1000 nM
CC1OCc2c1c1ncnc(N)c1n2-c1ccc(Oc2ccncc2)cc1 (centres unmarked) [Compound 74]	–	> 1000 nM	> 1000 nM
CC(C)COc1cccc(Oc2ccc(-n3c4c(c5ncnc(N)c53)C(C)OC4)cc2)c1 (centres unmarked) [Compound 135]	–	100 to 1000 nM	< 100 nM
CC1OCc2c1c1ncnc(N)c1n2-c1ccc(Oc2cccc(NC(=O)c3ccc(F)cc3)c2)cc1 (centres unmarked) [Compound 112]	–	100 to 1000 nM	< 100 nM
N#Cc1ccccc1OCc1cccc(Oc2ccc(-n3c4c(c5ncnc(N)c53)CCC4)cc2)c1 [Compound 144]	–	100 to 1000 nM	< 100 nM
CC1OCc2c1c1ncnc(N)c1n2-c1ccc(Oc2cccc(OCc3cccc(C#N)c3)c2)cc1 (centres unmarked) [Compound 89]	–	100 to 1000 nM	< 100 nM
N#Cc1ccccc1COc1cccc(Oc2ccc(-n3c4c(c5ncnc(N)c53)COC4)cc2)c1 [Compound 143]	–	100 to 1000 nM	< 100 nM
CC1OCc2c1c1ncnc(N)c1n2-c1ccc(Oc2cccc(NS(=O)(=O)Cc3ccccc3)c2)cc1 (centres unmarked) [Compound 81]	–	> 1000 nM	< 100 nM
N#Cc1ccccc1OCc1cccc(Oc2ccc(-n3c4c(c5ncnc(N)c53)COC4)cc2)c1 [Compound 142]	–	100 to 1000 nM	< 100 nM
CC1OCc2c1c1ncnc(N)c1n2-c1ccc(Oc2cccc(NC(=O)c3cccc(Cl)c3)c2)cc1 (centres unmarked) [Compound 119]	–	100 to 1000 nM	< 100 nM
CC1OCc2c1c1ncnc(N)c1n2-c1ccc(Oc2cccc(NC(=O)Cc3ccccc3)c2)cc1 (centres unmarked) [Compound 84]	–	> 1000 nM	< 100 nM
Cc1nc(-c2cccc(Oc3ccc(-n4c5c(c6ncnc(N)c64)C(C)OC5)cc3)c2)cs1 (centres unmarked) [Compound 90]	–	100 to 1000 nM	< 100 nM
CC1OCc2c1c1ncnc(N)c1n2-c1ccc(Oc2cccc(NS(C)(=O)=O)c2)cc1 (centres unmarked) [Compound 76]	–	> 1000 nM	< 1000 nM
CC1OCc2c1c1ncnc(N)c1n2-c1ccc(Oc2cccc(OCc3cccc(C(F)(F)F)c3)c2)cc1 (centres unmarked) [Compound 105]	–	100 to 1000 nM	< 100 nM
Cc1nc(-c2cccc(Oc3ccc(-n4c5c(c6ncnc(N)c64)CCC5)cc3)c2)cs1 [Compound 117]	–	100 to 1000 nM	< 100 nM
Nc1ncnc2c3c(n(-c4ccc(Oc5ccccc5)cc4)c12)CS(=O)(=O)C3 [Compound 65]	–	> 1000 nM	> 1000 nM
CC1OCc2c1c1ncnc(N)c1n2-c1ccc(Oc2cccc(OCC3CCOCC3)c2)cc1 (centres unmarked) [Compound 67]	–	> 1000 nM	< 100 nM
CC1OCc2c1c1ncnc(N)c1n2-c1ccc(Oc2cccc(OCc3cccc(OCCN(C)C)c3)c2)cc1 (centres unmarked) [Compound 139]	–	100 to 1000 nM	< 100 nM
CC1OCc2c1c1ncnc(N)c1n2-c1ccc(Oc2cccc(NC(=O)c3ccccc3F)c2)cc1 (centres unmarked) [Compound 125]	–	100 to 1000 nM	< 100 nM
COc1cccc(COc2cccc(Oc3ccc(-n4c5c(c6ncnc(N)c64)CCC5)cc3)c2)c1 [Compound 123]	–	100 to 1000 nM	< 100 nM
CC1OCc2c1c1ncnc(N)c1n2-c1ccc(Oc2cccc(OCc3ccccc3F)c2)cc1 (centres unmarked) [Compound 94]	–	100 to 1000 nM	< 100 nM
